Measured values from patent US7935688B2, “Vitamin D-like compound” (Chugai Seiyaku Kabushiki Kaisha, priority 2005, dated 2011).

Assays:
[1] = tested on: osteocalcin production in MG-63 cells; assay: Osteocalcin production in MG-63 cells (Gla-type Osteocalcin EIA); type: cell-based, human; details: (EC50 value of 1,25(OH)2D3/EC50 value of each compound)×100; eight hours exposure, then four days culture
Procedure: mg-63 was obtained from Institute for Fermentation, Osaka as a human osteoblast-like cell line. MG-63 cells were maintained and cultured in a MEM medium (Minimum essential medium; pH 7.0; Invitrogen Corporation, Carlsbad, Calif., USA) containing 5% fetal bovine serum (FBS; HyClone, Logan, Utah, USA).
MG-63 cells were adjusted to a density of 4.0×10^4 cells/mL, plated in a 96-well plate at 200 μL per well, and cultured under conditions of 37° C. and 5% carbon dioxide for 24 hours.
After removing the medium, MEM containing 5% charcoal/dextran treated FBS (DCC-FBS; Hyclone, Logan, Utah, USA) was added at 180 μL/well. The test substance (1.0×10^−3 mol/L) was diluted with dimethyl sulfoxide (DMSO) to 1.0×10^−4 mol/L, 1.0×10^−5 mol/L, 1.0×10^−6 mol/L, 1.0×10^−7 mol/L and 1.0×10^−8 mol/L. 1,25(OH)2D3 was used as a positive control. Like the test substance, 1,25(OH)2D3 was diluted with DMSO. 0.02 mL of the positive control and the test substance diluted 100-fold with MEM containing 5% DCC-FCS was added to each well of the 96-well plate, so that the final drug concentration was 1.0×10^−6 mol/L to 1.0×10^−11 mol/L. Thereafter, the cells were cultured under conditions of 37° C. and 5% carbon dioxide for eight hours.
After culturing for eight hours, the medium was removed, and MEM containing 5% DCC-FBS was added at 0.2 mL per well. The cells were cultured under conditions of 37° C. and 5% carbon dioxide for four days, and the medium was recovered. The medium was stored at −80° C. until osteocalcin measurement.
The Gla-type Osteocalcin EIA kit (Takara Bio Inc., Tokyo, Japan) was used for measurement of osteocalcin. Measurement was carried out using a microplate reader (Model 3550, Bio-Rad Laboratories, Inc., Hercules, Calif., USA) at a wavelength of 450 nm, and the results were analyzed by Microplate Manager III (Bio-Rad Laboratories, Inc., ver. 1.57).
The median effective concentration (EC50) was calculated from the osteocalcin concentration. Potency of induction of each compound was calculated as a ratio of EC50 of 1,25(OH)2D3 to EC50 of the compound. The relation between diseases and induction of osteocalcin production is described in Lancet (1984 May 19), 1 (8386), 1091-3; Steroids 66, 159-170 (2001); and Journal of Steroid Biochemistry & Molecular Biology 89-90, 269-271 (2004), for example.
The osteocalcin production level in MG-63 cells (%) was calculated by the formula: (EC50 value of 1,25(OH)2D3/EC50 value of each compound)×100.

[2] = tested on: Sprague-Dawley female rats subjected to ovariectomy (OVX); assay: Effect of increasing bone density in ovariectomized rats (dual X-ray bone densitometry); type: in vivo, rat; details: forcibly orally, five times per week, pathological control group (vehicle) = 100%
Procedure: The compound of the present invention was adjusted to each concentration using middle chain triglyceride (MCT) as a base. The adjusted solution was stored under shading at 4° C. until use.
Seven-week-old Sprague-Dawley (Crj:CD(SD)) female rats (Charles River Laboratories Japan, Inc.) were preliminarily bred for one week in an environment at a room temperature of 20 to 26° C., at a humidity of 35 to 75% and with an air change of 10 times or more per hour. The rats were allowed to freely take tap water and CE-2 (CLEA Japan, Inc.) as a feed.
After preliminary breeding, the animals were subjected to ovariectomy (OVX) and divided into groups (eight animals per group) on the day after the operation. Only MCT as a base was forcibly orally administered to the sham operation group (sham) and the pathological control group (OVX-vehicle) at a dose of 1 mL/kg (five times per week). The compound of the present invention was also forcibly orally administered at the same dose five times per week.
The animals were bred in a metabolic cage and urine was collected for 24 hours after the final administration. Blood was collected from the abdominal aorta under ether anesthesia for 24 hours after the final administration. The blood was allowed to stand at room temperature for 30 minutes and then centrifuged to provide serum. The femur and lumbar spine were collected and stored in 70% ethanol until bone density measurement.
The bone density of the femur and the second to fifth lumbar spines of the isolated lumbar spines was measured by the dual X-ray bone densitometry system DCS-600-EX (ALOKA). The distal femur bone density was measured for three […] regions out of 10 regions of the femur equally divided in length. The bone density in each site was described based on the bone density of the pathological control group (vehicle group) in each experiment as 100%.
The effects of the compounds of the present invention on the lumbar spine bone density are shown in Table 2 as an example of the obtained results.

SMILES | Osteocalcin production level in MG-63 cells (%) [1] [%] | further results
CCC(CC)(c1ccc(/C=C/C(O)(C(F)(F)F)C(F)(F)F)c(C)c1)c1ccc(-c2cccc(CC(=O)O)c2)c(C)c1 [Example 71, (4′-{1-ethyl-1-[3-methyl-4-((E)-4,4,4-trifluoro-3-hydroxy-3-trifluoromethyl-1-butenyl)-phenyl]-propyl}-2′-methyl-biphenyl-3-yl)-acetic Acid] | 746 | Lumbar spine bone density (%) ([2]; 0.025 μg/kg): 110.58%; Lumbar spine bone density (%) ([2]; 0.05 μg/kg): 115.09%
CCC(CC)(c1ccc(/C=C/C(O)(C(F)(F)F)C(F)(F)F)c(C)c1)c1ccc(-c2nc(CC(=O)O)cs2)c(C)c1 [Example 76, [2-(4-{1-ethyl-1-[3-methyl-4-((E)-4,4,4-trifluoro-3-hydroxy-3-trifluoromethyl-1-butenyl)-phenyl]-propyl}-2-methyl-phenyl)-thiazol-4-yl]-acetic Acid] | 407 | Lumbar spine bone density (%) ([2]; 0.015 μg/kg): 110.22%; Lumbar spine bone density (%) ([2]; 0.03 μg/kg): 111.00%
CCC(CC)(c1ccc(C#CC(O)(C(F)(F)F)C(F)(F)F)c(C)c1)c1ccc(-c2cncc(CC(=O)O)c2)c(C)c1 [Example 80, [5-(4-{1-ethyl-1-[3-methyl-4-(4,4,4-trifluoro-3-hydroxy-3-trifluoromethyl-1-butynyl)-phenyl]-propyl}-2-methyl-phenyl)-pyridin-3-yl]-acetic Acid] |  | Lumbar spine bone density (%) ([2]; 0.05 μg/kg): 110.75%; Lumbar spine bone density (%) ([2]; 0.1 μg/kg): 116.68%
CCC(CC)(c1ccc(/C=C/C2(O)CCCC2)c(C)c1)c1ccc(-c2ccc(CC(=O)[O-])c(F)c2)c(C)c1.[Na+] [Example 84, Sodium [4′-(1-ethyl-1-{4-[(E)-2-(1-hydroxy-cyclopentyl)-vinyl]-3-methyl-phenyl}-propyl)-3-fluoro-2′-methyl-biphenyl-4-yl]-acetate] | 739 | 
CCC(CC)(c1ccc(/C=C/C2(O)CCCC2)c(C)c1)c1ccc(-c2ccc(CC(=O)O)cn2)c(C)c1 [Example 85, {6-[4-(1-ethyl-1-{4-[(E)-2-(1-hydroxy-cyclopentyl)-vinyl]-3-methyl-phenyl}-propyl)-2-methyl-phenyl]-pyridin-3-yl}-acetic Acid] | 765 | 
CCC(CC)(c1ccc(/C=C/C2(O)CCCCC2)c(C)c1)c1ccc(-c2ccc(CC(=O)O)c(F)c2)c(C)c1 [Example 88, [4′-(1-ethyl-1-{4-[(E)-2-(1-hydroxy-cyclohexyl)-vinyl]-3-methyl-phenyl}-propyl)-3-fluoro-2′-methyl-biphenyl-4-yl]-acetic Acid] | 4562 | 
CCC(CC)(c1ccc(/C=C/C2(O)CCCCC2)c(C)c1)c1ccc(-c2cc(Cl)ccc2CC(=O)O)c(C)c1 [Example 89, [5-chloro-4′-(1-ethyl-1-{4-[(E)-2-(1-hydroxy-cyclohexyl)-vinyl]-3-methyl-phenyl}-propyl)-2′-methyl-biphenyl-2-yl]-acetic Acid] |  | Lumbar spine bone density (%) ([2]; 1.25 μg/kg): 109.24%; Lumbar spine bone density (%) ([2]; 2.5 μg/kg): 121.37%
CCC(CC)(c1ccc(/C=C/C2(O)CCCCC2)c(C)c1)c1ccc(-c2ccc(CC(=O)O)c(Cl)c2)c(C)c1 [Example 90, [3-chloro-4′-(1-ethyl-1-{4-[(E)-2-(1-hydroxy-cyclohexyl)-vinyl]-3-methyl-phenyl}-propyl)-2′-methyl-biphenyl-4-yl]-acetic Acid] | 1604 | 
CCC(CC)(c1ccc(/C=C/C2(O)CCCCC2)c(C)c1)c1ccc(-c2ccc(CC(=O)O)cn2)c(C)c1 [Example 91, {6-[4-(1-ethyl-1-{4-[(E)-2-(1-hydroxy-cyclohexyl)-vinyl]-3-methyl-phenyl}-propyl)-2-methyl-phenyl]-pyridin-3-yl}-acetic Acid] | 1074 | 
CCC(CC)(c1ccc(C#CC2(O)CCCC2)c(C)c1)c1ccc(-c2ccc(CC(=O)O)c(F)c2)c(C)c1 [Example 93, (4′-{1-ethyl-1-[4-(1-hydroxy-cyclopentylethynyl)-3-methyl-phenyl]-propyl}-3-fluoro-2′-methyl-biphenyl-4-yl)-acetic Acid] | 487 | 
CCC(CC)(c1ccc(C#CC2(O)CCCCC2)c(C)c1)c1ccc(-c2ccc(CC(=O)O)c(F)c2)c(C)c1 [Example 97, (4′-{1-ethyl-1-[4-(1-hydroxy-cyclohexylethynyl)-3-methyl-phenyl]-propyl}-3-fluoro-2′-methyl-biphenyl-4-yl)-acetic Acid] | 533 | 
CCC(CC)(c1ccc(OCC(O)C(C)(C)C)c(C)c1)c1ccc(-c2ccc(CC(=O)O)c(F)c2)c(C)c1 (stereo not drawn) [Example 100, (4′-{1-ethyl-1-[4-(2-hydroxy-3,3-dimethyl-butoxy)-3-methyl-phenyl]-propyl}-3-fluoro-2′-methyl-biphenyl-4-yl)-acetic Acid] | 878 | 
CCC(CC)(c1ccc(OCC(O)C(C)(C)C)c(C)c1)c1ccc(-c2ccc(CC(=O)O)cn2)c(C)c1 (stereo not drawn) [Example 101, [6-(4-{1-ethyl-1-[4-(2-hydroxy-3,3-dimethyl-butoxy)-3-methyl-phenyl]-propyl}-2-methyl-phenyl)-pyridin-3-yl]-acetic Acid] | 508 | 
CCC(CC)(c1ccc(-c2cncc(CC(=O)O)c2)cc1)c1ccc(OCC(O)C(C)(C)C)c(C)c1 (stereo not drawn) [Example 146, [5-(4-{1-ethyl-1-[4-(2-hydroxy-3,3-dimethyl-butoxy)-3-methyl-phenyl]-propyl}-phenyl)-pyridin-3-yl]-acetic Acid] | 3721 | 
CCC(CC)(c1ccc(-c2cncc(CC(=O)O)c2)cc1)c1ccc(C#CC2(O)CCCCC2)c(C)c1 [Example 147, [5-(4-{1-ethyl-1-[4-(1-hydroxy-cyclohexylethynyl)-3-methyl-phenyl]-propyl}-phenyl)-pyridin-3-yl]-acetic Acid] | 1228 | 
CCC(CC)(c1ccc(-c2cncc(CC(=O)O)c2)cc1)c1ccc(C#CC2(O)CCCC2)c(C)c1 [Example 148, [5-(4-{1-ethyl-1-[4-(1-hydroxy-cyclopentylethynyl)-3-methyl-phenyl]-propyl}-phenyl)-pyridin-3-yl]-acetic Acid] | 1022 | 
CCC(CC)(c1ccc(-c2cncc(CC(=O)O)c2)cc1)c1ccc(CCC2(O)CCCC2)c(C)c1 [Example 150, {5-[4-(1-ethyl-1-{4-[2-(1-hydroxy-cyclopentyl)-ethyl]-3-methyl-phenyl}-propyl)-phenyl]-pyridin-3-yl}-acetic Acid] | 645 | 
CCC(CC)(c1ccc(OCC(O)CO)c(C)c1)c1ccc(OCC(O)C(C)(C)C)c(C)c1 (stereo not drawn) [LG190178, reference compound] | 185 | 
